This is an account of results in patent publication US7205433B2, “Crystal of amino acid ester salt and process for producing the same” (Ajinomoto Co., Inc., priority 2002, dated 2007).

The nature of the data set: Comparative Example 9: crystals left standing at room temperature. Format: physicochemical. The conditions noted are these: left standing at room temperature for a while.

Excerpt: The crystals were separated and dried to give L-alanine methyl ester benzenesulfonate (L-Ala-OMe BsOH salt) crystals. The crystals were left standing at room temperature for a while.

Regarding `COC(=O)[C@H](C)N.O=S(=O)(O)c1ccccc1` [L-Ala-OMe BsOH salt, L-alanine methyl ester benzenesulfonate], the “stability of the crystals” value was “the crystals were liquefied and failed to provide stable crystals”.
